Structures can show the parent of a compound that is named as a salt.
biological target: T1, human CGT (ceramide galactosyltransferase), CHO/CGT lysate (Homo sapiens, UniProt Q16880); test: CGT enzyme assay, RapidFire/MS/MS readout with 0.01% Tween added (Table 1 ranges with two asterisks **); format: biochemical; settings: CGT enzymatic assay; range with two asterisks (**): RapidFire/MS/MS method with 0.01% Tween added
T1 construct: Full-length human CGT cDNA was cloned into the BamH1/Xho1 site of pcDNA3.1 (+); expressed in transfected cells; host or cells: Chinese hamster ovary (CHO) cells; lysate prepared with M-PER
T1 sequence (Q16880 21-541): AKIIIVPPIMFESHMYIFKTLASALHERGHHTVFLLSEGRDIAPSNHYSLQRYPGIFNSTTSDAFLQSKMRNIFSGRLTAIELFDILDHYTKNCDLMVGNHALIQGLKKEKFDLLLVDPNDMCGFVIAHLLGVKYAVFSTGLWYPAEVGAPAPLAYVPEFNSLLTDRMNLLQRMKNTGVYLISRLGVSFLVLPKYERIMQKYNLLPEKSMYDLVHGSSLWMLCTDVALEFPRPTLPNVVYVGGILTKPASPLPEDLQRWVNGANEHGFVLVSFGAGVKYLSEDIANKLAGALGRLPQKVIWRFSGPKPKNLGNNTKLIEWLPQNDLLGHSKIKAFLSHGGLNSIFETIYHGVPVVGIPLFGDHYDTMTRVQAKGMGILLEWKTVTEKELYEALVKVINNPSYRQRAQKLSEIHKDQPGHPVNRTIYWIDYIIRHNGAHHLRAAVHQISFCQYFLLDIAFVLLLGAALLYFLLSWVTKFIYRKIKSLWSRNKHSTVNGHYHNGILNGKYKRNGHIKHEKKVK
Procedure: Full-length human CGT cDNA was cloned into the BamH1/Xho1 site of pcDNA3.1 (+) mammalian expression vector (V90-20, Invitrogen, Carlsbad, Calif.) and the plasmid was transfected into Chinese hamster ovary (CHO) cells. Lysate was prepared using M-PER (Mammalian Protein Extraction Reagent, ThermoFisher Scientific, Grand Island, N.Y.) in the presence of a protease inhibitor cocktail (P8340, Sigma, Saint Louis, Mo.). Each 100 mm dish (100% confluent, approximately 1×10^7 cells) was lysed with 250 μL of M-PER containing protease inhibitors. Protein concentration was determined using a Pierce BCA protein assay kit (ThermoFisher Scientific). Four micrograms of CHO/CGT lysate was incubated with various concentrations of a compound (0.001 μM-50 μM) in 10 mM HEPES (pH 7.2) containing 35 μM dioleoylphosphatidylcholine, 5 mM MgCl2, 5 mM MnCl2, 1% BSA, 15 mM KCl, 1 mM EGTA, 8 mM CHAPS, 10 μM C6-NBD-dihydro-ceramide and 17.5 μM UDP-galactose in a final reaction volume of 20 μL at 37° C. for 1 hour. The final concentration of DMSO was 0.5% in both compound-treated and mock-treated samples. Tween 80 (0.01%) was optionally added to the reaction mixture to help solubilize the compounds. Each individual reaction was diluted with 80 μL of methanol:acetronitrile (1:3) containing 5 μM N-docdecanoyl-NBD-galactosylceramide (internal standard) to stop the reaction. 200 μL H2O:acetonitile (1:1) was added to precipitate the protein. After sufficient mixing, the plates were centrifuged at 2469 g for 38 minutes, 200 μL of supernatant was transferred to a LC/MS 96-deep well plate and a second spin was performed at 2469 g for 10 minutes. The final supernatant was injected in triplicate for RapidFire/MS/MS analysis.
Quantitative Analysis Using the RapidFire/MS/MS Method:
The quantitative analysis of C6-NBD-dihydro-ceramide and C6-NBD-dihydro-galactosylceramide was performed on a Rapid Fire 360 high-throughput mass spectrometry system (Agilent Technologies, Palo Alto, Calif.) coupled with a API4000^+ triple quadrupole mass spectrometer (Applied Biosystems, Concord, Ontario, Canada). RapidFire software packages, including RapidFire Control panel, RapidFire UI and RapidFire Integrator (Agilent Technologies), were used to control the RapidFire instrument and to process data. Analyst 1.6.2 software packages (Applied Biosystems) were used to control the MS system and acquire MS data. […] of sample was loaded on a micro-scale C4 solid-phase extraction (SPE) cartridge (Agilent Technologies) and salts were removed using water supplemented with 0.1% formic acid at the flow rate of 1.5 mL/min for 3 sec. C6-NBD-dihydro-ceramide and C6-NBD-dihydro-galactosylceramide were co-eluted into the mass spectrometer using acetonitrile containing 0.1% formic acid at the flow rate of 1.0 mL/min for 3 sec. The total cycle time of one injection was 8 secs. The MS/MS detection was performed in ESI negative mode. The mass transition of C6-NBD-dihydro-galactosylceramide was m/z 752.6→678.6 using a −40 V collision energy, the mass transition of C6-NBD-dihydro-ceramide was m/z 590.6→115.8 using a −40 V collision energy and the mass transition of N-docdecanoyl-NBD-galactosylceramide was m/z 820.9→746.3 using a −45 V collision energy.
The C6-NBD-dihydro-galactosylceramide reading was normalized first by dividing the peak area of C6-NBD-dihydro-galactosylceramide by the peak area of the internal standard, N-docdecanoyl-NBD-galactosylceramide. IC50 values (see Table 1, where data ranges with one asterix (*) correspond to analysis using the RapidFire/MS/MS method, and data ranges with two asterixes (**) correspond to analysis using the RapidFire/MS/MS method with 0.01% Tween added) were generated from sigmoidal dose-response curves (variable slope) with GraphPad Prism software (GraphPad Software, Inc., San Diego, Calif.) using the normalized peak areas of C6-NBD-dihydro-galactosylceramide or the percent inhibition of C6-NBD-dihydro-galactosylceramide accumulation relative to DMSO control. […]

Row | Compound | IC50 [µM]
1 | NC1CCN(C(=O)[C@@H](NS(=O)(=O)c2ccc(OCC3CCCCC3)cc2)C(F)(F)c2ccc3c(c2)oc2cc(Cl)ccc23)CC1 [Compound 198-1, (R)-N-(3-(4-aminopiperidin-1-yl)-1-(7-chlorodibenzo[b,d]furan-3-yl)-1,1-difluoro-3-oxopropan-2-yl)-4-(cyclohexylmethoxy)benzenesulfonamide] | 1 to 10
2 | NC1CC2CCC(C1)N2C(=O)[C@@H](NC(=O)[C@H](O)c1ccc2cc(OC3CCCC3)ccc2c1)C(F)(F)c1ccc2cc(Br)ccc2c1 (stereo partly drawn) [Compound 158-1, (2R)—N-((2R)-3-(3-amino-8-azabicyclo[3.2.1]octan-8-yl)-1-(6-bromonaphthalen-2-yl)-1,1-difluoro-3-oxopropan-2-yl)-2-(6-(cyclopentyloxy)naphthalen-2-yl)-2-hydroxyacetamide trifluoroacetate] | 1 to 10
3 | NC1CC2CCC(C1)N2C(=O)[C@H](NC(=O)[C@H](O)c1ccc2cc(OC3CCCC3)ccc2c1)C(F)(F)c1ccc2cc(Br)ccc2c1 (stereo partly drawn) [Compound 158-4, (2R)—N-((2S)-3-(3-amino-8-azabicyclo[3.2.1]octan-8-yl)-1-(6-bromonaphthalen-2-yl)-1,1-difluoro-3-oxopropan-2-yl)-2-(6-(cyclopentyloxy)naphthalen-2-yl)-2-hydroxyacetamide trifluoroacetate] | 30 to 100
4 | N[C@H]1CCN(C(=O)[C@@H](NS(=O)(=O)c2ccc3cc(OC4CCCC4)ccc3c2)C(F)(F)c2ccc(-c3ccc(Cl)cc3)cc2)C[C@@H]1F [Compound 178-1, N—((R)-3-((3 S,4S)-4-amino-3-fluoropiperidin-1-yl)-1-(4′-chloro-[1,1′-biphenyl]-4-yl)-1,1-difluoro-3-oxopropan-2-yl)-6-(cyclopentyloxy)naphthalene-2-sulfonamide] | 1 to 10
5 | CCOc1cc(-c2ccc(C(F)(F)[C@@H](NS(=O)(=O)c3ccc(OCC4CCCCC4)cc3)C(=O)N3CCC(N)CC3)cc2)ccc1Cl [Compound 153-2, (S)—N-(3-(4-aminopiperidin-1-yl)-1-(4′-chloro-3′-ethoxy-[1,1′-biphenyl]-4-yl)-1,1-difluoro-3-oxopropan-2-yl)-4-(cyclohexylmethoxy) benzenesulfonamide trifluoroacetate] | 30 to 100
6 | N[C@@H]1CC2CCC1N2C(=O)[C@H](NS(=O)(=O)c1ccc2cc(OC3CCCC3)ccc2c1)C(F)(F)c1ccc(-c2ccc(Cl)cc2)cc1 (stereo partly drawn) [Compound 180-3, N-((2S)-3-((2R)-2-amino-7-azabicyclo[2.2.1]heptan-7-yl)-1-(4′-chloro-[1,1′-biphenyl]-4-yl)-1,1-difluoro-3-oxopropan-2-yl)-6-(cyclopentyloxy)naphthalene-2-sulfonamide] | 1 to 10
7 | N[C@H]1CCN(C(=O)[C@H](NS(=O)(=O)c2ccc(OCC3CCCCC3)cc2)C(F)(F)c2ccc(Cl)cc2)C1 [Compound 186-2, N-((S)-3-((S)-3-aminopyrrolidin-1-yl)-1-(4-chlorophenyl)-1,1-difluoro-3-oxopropan-2-yl)-4-(cyclohexylmethoxy)benzenesulfonamide] | 30 to 100
8 | NC1CCN(C(=O)[C@@H](NC(=O)C(=O)c2cc3ccc(OC4CCCC4)cc3s2)C(F)(F)c2ccc(-c3ccc(Cl)cc3)cc2)CC1 [Compound 175-1, (R)—N-(3-(4-aminopiperidin-1-yl)-1-(4′-chloro-[1,1′-biphenyl]-4-yl)-1,1-difluoro-3-oxopropan-2-yl)-2-(6-(cyclopentyloxy)benzo[b]thiophen-2-yl)-2-oxoacetamide trifluoroacetate] | 10 to 30

same assay, conditions: CGT enzyme assay, RapidFire/MS/MS method with 0.01% Tween added (range with two asterisks **)

Row | Compound | IC50 [µM]
9 | COc1cc(C(F)(F)[C@@H](NS(=O)(=O)c2ccc(OCC3CCCCC3)cc2)C(=O)N2CCC(N)CC2)ccc1Br [Compound 145-2, (S)—N-(3-(4-aminopiperidin-1-yl)-1-(4-bromo-3-methoxyphenyl)-1,1-difluoro-3-oxopropan-2-yl)-4-(cyclohexylmethoxy) benzenesulfonamide trifluoroacetate] | 30 to 100
10 | COc1cc(C(F)(F)[C@H](NS(=O)(=O)c2ccc3cc(OC4CCCC4)ccc3c2)C(=O)N2CCC(N)CC2)ccc1-c1ccc(Cl)cc1 [Compound 144-1, (R)—N-(3-(4-aminopiperidin-1-yl)-1-(4′-chloro-2-methoxy-[1,1′-biphenyl]-4-yl)-1,1-difluoro-3-oxopropan-2-yl)-6-(cyclopentyloxy)naphthalene-2-sulfonamide trifluoroacetate] | < 1
11 | COc1cc(C(F)(F)[C@@H](NS(=O)(=O)c2ccc(OCC3CCCCC3)cc2)C(=O)N2C3CCC2CC(N)C3)ccc1-c1ccc(Cl)cc1 (stereo partly drawn) [Compound 142-2, N-((2S)-3-(3-amino-8-azabicyclo[3.2.1]octan-8-yl)-1-(4′-chloro-2-methoxy-[1,1′-biphenyl]-4-yl)-1,1-difluoro-3-oxopropan-2-yl)-4-(cyclohexylmethoxy)benzenesulfonamide trifluoroacetate] | 1 to 10

biological target: T1, human CGT (ceramide galactosyltransferase), CHO/CGT lysate; test: CGT enzyme assay, RapidFire/MS/MS readout (Table 1 ranges with one asterisk *); format: biochemical; settings: RapidFire method (range with one asterisk *)
Summary of the method: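 Lysate (4 μg) of CHO cells transfected with full-length human CGT incubated 1 h at 37 °C with compound (0.001–50 μM) in pH 7.2 HEPES buffer with 10 μM C6-NBD-dihydro-ceramide, 17.5 μM UDP-galactose, Mg2+/Mn2+, CHAPS, BSA, 0.5% DMSO; ** set also contained 0.01% Tween 80. Product quantified by RapidFire/MS/MS, normalized to internal standard; IC50 from sigmoidal variable-slope fits.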

Row | Compound | IC50 [µM]
12 | CN([C@@H](C(=O)N1C2CCC1CC(N)C2)C(F)(F)c1ccc(Oc2ccccc2)cc1)S(=O)(=O)c1ccc2cc(OC3CCCC3)ccc2c1 (stereo partly drawn) [Compound 87-2, N-((2S)-3-(3-amino-8-azabicyclo[3.2.1]octan-8-yl)-1,1-difluoro-3-oxo-1-(4-phenoxyphenyl)propan-2-yl)-6-(cyclopentyloxy)-N-methylnaphthalene-2-sulfonamide trifluoroacetate] | 1 to 10
13 | NC1CC2CCC(C1)N2C(=O)[C@@H](NC(=O)[C@H](O)c1ccc2cc(OC3CCCC3)ccc2c1)C(F)(F)c1ccc(Br)cc1 (stereo partly drawn) [Compound 41-5, (2R)—N-((2R)-3-(3-amino-8-azabicyclo[3.2.1]octan-8-yl)-1-(4-bromophenyl)-1,1-difluoro-3-oxopropan-2-yl)-2-(6-(cyclopentyloxy)naphthalen-2-yl)-2-hydroxyacetamide trifluoroacetate] | 10 to 30

Reference: US20190322676A1, “CERAMIDE GALACTOSYLTRANSFERASE INHIBITORS FOR THE TREATMENT OF DISEASE” (BioMarin Pharmaceutical Inc., priority 2016, published 2019)
